Measured values reported in ChEMBL document CHEMBL3864158, “Syntheses, cytotoxic activity evaluation and HQSAR study of 1,2,3-triazole-linked isosteviol derivatives as potential anticancer agents” (Bioorg Med Chem Lett, 2016).

Columns and labels:
[1] = Cytotoxicity against human JeKo1 cells assessed as decrease in cell proliferation after 72 hrs by MTT assay; format: functional, cell-based; details: JeKo-1, 72 h
[2] = Cytotoxicity against human HCT116 cells assessed as decrease in cell proliferation after 72 hrs by MTT assay; format: functional, cell-based; details: HCT-116, 72 h

## CCOC(=O)[C@]1(C)CCC[C@@]2(C)[C@@H]3CC[C@@]4(C)C[C@]3(CC[C@@H]21)[C@H](Cn1cc(COc2ccccc2C=O)nn1)[C@H]4O
[1]
  IC50: 12.7 µM
[2]
  IC50: 2.99 µM

## CCOC(=O)[C@]1(C)CCC[C@@]2(C)[C@@H]3CC[C@@]4(C)C[C@]3(CC[C@@H]21)C[C@@H]4n1cc(COc2ccc(C(=O)O)cc2)nn1
[1]
  IC50: 54.4 µM
[2]
  IC50: 11.8 µM

## CCOC(=O)[C@]1(C)CCC[C@@]2(C)[C@@H]3CC[C@@]4(C)C[C@]3(CC[C@@H]21)C[C@@H]4n1cc(-c2ccccc2)nn1
[1]
  IC50: 95.9 µM
[2]
  IC50: 48.4 µM

## CCOC(=O)[C@]1(C)CCC[C@@]2(C)[C@@H]3CC[C@@]4(C)C[C@]3(CC[C@@H]21)C[C@H]4OS(=O)(=O)c1ccc(C)cc1
[1]
  IC50: 9.75 µM
[2]
  IC50: 51.4 µM

## CCOC(=O)[C@]1(C)CCC[C@@]2(C)[C@@H]3CC[C@@]4(C)C[C@]3(CC[C@@H]21)C[C@@H]4n1cc(COc2ccccc2C=O)nn1
[1]
  IC50: 12.2 µM
[2]
  IC50: 3.8 µM

## CC(=O)O[C@@H]1O[C@H](n2cc(COC(=O)[C@]3(C)CCC[C@@]4(C)[C@H]5CC[C@@]6(C)C[C@]5(CC[C@@H]43)CC6=O)nn2)[C@@H](OC(C)=O)[C@@H](OC(C)=O)[C@H]1OC(C)=O
[1]
  IC50: 26.3 µM
[2]
  IC50: 19.3 µM

## CCOC(=O)[C@]1(C)CCC[C@@]2(C)[C@@H]3CC[C@@]4(C)C[C@]3(CC[C@@H]21)[C@H](Cn1cc(COc2cccc(C=O)c2)nn1)[C@H]4O
[1]
  IC50: 15.6 µM
[2]
  IC50: 4.64 µM

## CCOC(=O)[C@]1(C)CCC[C@@]2(C)[C@@H]3CC[C@@]4(C)C[C@]3(CC[C@@H]21)[C@H](CN=[N+]=[N-])[C@H]4O
[1]
  IC50: 31.2 µM
[2]
  IC50: 14.8 µM

## CCOC(=O)[C@]1(C)CCC[C@@]2(C)[C@@H]3CC[C@@]4(C)C[C@]3(CC[C@@H]21)[C@H](Cn1cc(-c2ccccc2)nn1)[C@H]4O
[1]
  IC50: 18.8 µM
[2]
  IC50: 8.57 µM

## CCOC(=O)[C@]1(C)CCC[C@@]2(C)[C@@H]3CC[C@@]4(C)C[C@]3(CC[C@@H]21)[C@H](Cn1cc(COc2ccc(C(C)=O)cc2)nn1)[C@H]4O
[1]
  IC50: 19.6 µM
[2]
  IC50: 8.15 µM

## CCOC(=O)[C@]1(C)CCC[C@@]2(C)[C@@H]3CC[C@@]4(C)C[C@]3(CC[C@@H]21)C[C@H]4n1cc(COC(=O)[C@]2(C)CCC[C@@]3(C)[C@@H]4CC[C@@]5(C)C[C@]4(CC[C@@H]32)CC5=O)nn1
[1]
  IC50: 15.3 µM
[2]
  IC50: 126 µM

## CCOC(=O)[C@]1(C)CCC[C@@]2(C)[C@@H]3CC[C@@]4(C)C[C@]3(CC[C@@H]21)C[C@@H]4n1cc(COc2ccc(C(C)=O)cc2)nn1
[1]
  IC50: 13.9 µM
[2]
  IC50: 9.62 µM

## C[C@@]12CC[C@@H]3[C@@](CC[C@H]4[C@@]3(C)CCC[C@@]4(C)C(=O)O)(CC1=O)C2 [ISOSTEVIOL]
[1]
  IC50: > 150 µM
[2]
  IC50: > 150 µM

## CCOC(=O)[C@]1(C)CCC[C@@]2(C)[C@@H]3CC[C@@]4(C)C[C@]3(CC[C@@H]21)C[C@@H]4N=[N+]=[N-]
[1]
  IC50: 55.2 µM
[2]
  IC50: 46.1 µM

## CCOC(=O)[C@]1(C)CCC[C@@]2(C)[C@@H]3CC[C@@]4(C)C[C@]3(CC[C@@H]21)[C@H](Cn1cc(CO)nn1)[C@H]4O
[1]
  IC50: 32.3 µM
[2]
  IC50: 19.6 µM

## C#CCOC(=O)[C@]1(C)CCC[C@@]2(C)[C@@H]3CC[C@@]4(C)C[C@]3(CC[C@@H]21)CC4=O
[1]
  IC50: 24.7 µM
[2]
  IC50: 27.1 µM

## CCOC(=O)[C@]1(C)CCC[C@@]2(C)[C@@H]3CC[C@@]4(C)C[C@]3(CC[C@@H]21)C[C@@H]4n1cc(COc2cccc(C=O)c2)nn1
[1]
  IC50: 9.5 µM
[2]
  IC50: 6.5 µM

## CCOC(=O)[C@]1(C)CCC[C@@]2(C)[C@@H]3CC[C@@]4(C)C[C@]3(CC[C@@H]21)C[C@@H]4n1cc(COc2ccc(C=O)cc2)nn1
[1]
  IC50: 11.7 µM
[2]
  IC50: 8.2 µM

## CCOC(=O)[C@]1(C)CCC[C@@]2(C)[C@@H]3CC[C@@]4(C)C[C@]3(CC[C@@H]21)[C@H](Cn1cc(COc2ccc(C=O)cc2OC)nn1)[C@H]4O
[1]
  IC50: 7.09 µM
[2]
  IC50: 4.04 µM

## CCOC(=O)[C@]1(C)CCC[C@@]2(C)[C@@H]3CC[C@@]4(C)C[C@]3(CC[C@@H]21)[C@H](Cn1cc(COc2ccc(C=O)cc2)nn1)[C@H]4O
[1]
  IC50: 16.4 µM
[2]
  IC50: 6.62 µM

## CCOC(=O)[C@]1(C)CCC[C@@]2(C)[C@@H]3CC[C@@]4(C)C[C@]3(CC[C@@H]21)C[C@@H]4n1cc(COc2ccc(C=O)cc2OC)nn1
[1]
  IC50: 10.9 µM
[2]
  IC50: 7.18 µM
